Measured values published in US10376598B2, “Targeted therapeutics” (Madrigal Pharmaceuticals, Inc., priority 2013, dated 2019).
Like-named read-outs stand apart in the source and are kept apart here. Blank lines part the entries; values can stand above or below the compound they belong to.

Legend:
[1] = system: FGF-over VEGF-mediated target signaling; conditions: in mice; cited from earlier work
HER2 [2] = test: in vitro HER2 assays; type: cell-based
Source text: This example illustrates how a HER2 degradation assay may be used as a test to determine and select Hsp90-targeting moieties suitable for use in SDC-TRAPs of the invention, and further illustrates the ability of SDC-TRAPs to target cells preferentially expressing Hsp90. Such a test may further be used to determine the Hsp90 binding ability of SDC-TRAPs of the invention, as well as through competitive binding assays and cell-based Hsp90 client protein degradation assays known in the art.
BT-474 cells are plated in the interior 60 wells of a 96 well black clear bottom plate (20,000 cells/well) in DMEM medium, with DMEM media in the surrounding 36 wells, and incubated at 37° C. with 5% CO2 overnight. On the second day, concentration response curve source plates are produced (10 point, 3-fold dilution of compounds in DMSO) followed by a 1:30 dilution in an intermediate dilution plate containing DMEM. Compound is transferred from the intermediate plate to the cell plate at a dilution of 1:10. The cells are then incubated at 37° C. with 5% CO2 for 24 hours.
Cells are then fixed in 4% phosphate-buffered paraformaldehyde for 30 minutes at room temperature and then permeabilized by washing five times with 0.1% Triton X-100 in PBS for 5 minutes at room temperature on a shaker. […] The raw data is normalized to DRAQS and the HER2 EC50 is calculated using XLfit™. […]

[3] = Tissue distribution of ganetespib in female CD-1 nu/nu mice bearing RERF human NSCLC xenografts; type: in vivo
Source text: Tissue Distribution of Ganetespib in Female CD-1 Nu/Nu Mice Bearing RERF Human NSCLC Xenografts
To confirm the distribution of ganetespib in blood, livers, kidneys, brains, hearts, lungs and tumors after IV administration of ganetespib to female CD-1 nu/nu mice bearing RERF human NSCLC xenografts, and to examine metabolic profiles of ganetespib in plasma, red blood cells, and above tissues.
Animals: female CD-1 nu/nu mice bearing RERF human NSCLC xenografts (N=3/group)
Formulation: 10% DMSO, 18% Cremophor RH40, 3.6% dextrose solution (DRD)
Bleeding time points: 5 min, 6, 24 hr
Collected tissues: blood (plasma and red blood cells (RBC)), liver, kidneys, brain, heart, lung, tumor
Protein precipitation: 50 μL of 10 times diluted plasma or RBC+150 μL ACN (10 mM NH4OAc), vortexed and centrifuged at 10000 rpm for 8 min; 150 μL supernatant+150 μL water (10 mM NH4OAc)
Protein precipitation: 100 μL homogenized tissue (1:3 tissue: PBS buffer)+100 μL ACN (10 mM NH4OAc), vortexed and centrifuged at 10000 rpm for 8 min
Column: Agilent Zorbax Eclipse XDB-C18, 4.6×150 mm, 5 μm
Mobile phase: A: water containing 10 mM NH4OAc; B: 95% ACN containing 10 mM NH4OAc
Gradient: 95/5 A/B to 5/95 A/B in 10 min, total run time 15 min
Column: Phenomenex Synergi, 2.1×50 mm, 4 μm
Mobile phase: A: water containing 0.1% HCOOH; B: ACN containing 0.1% HCOOH
Gradient: 60/40 A/B to 5/95 A/B in 0.5 min, total run time 4 min

[4] = in vivo; cited from earlier work
p38α MAPK = p38α MAPK (Homo sapiens, UniProt Q16539); conditions: cited from earlier work
[5] = system: phosphorylation of MK2 (Thr334); conditions: anisomycin-induced mouse RAW264.7 macrophages; cited from earlier work
TNFα secretion = conditions: LPS/IFNγ-stimulated macrophages; cited from earlier work
β isoform of p38 MAPK = β isoform of p38 MAPK (Homo sapiens, UniProt Q15759); conditions: in vitro; cited from earlier work
phospho-MK2 = conditions: cited from earlier work
[6] = system: phosphorylation of MK2 (Thr334); conditions: TNFα-stimulated HeLa cells; cited from earlier work
[7] = system: SW1990 human pancreas orthotopic tumor; conditions: in vivo; cited from earlier work
SW1990 = conditions: read-out: IC50 cell proliferation; cited from earlier work
HER2 [8] = test: HER2 degradation in BT-474 cells (Method 1, Western blot); type: cell-based, human; conditions: 0.5 μM, overnight
Method: […]. The resulting supernatant used as the cytosol fractions is dissolved with sample buffer for SDS-PAGE and run on a SDS-PAGE gel, blotted onto a nitrocellulose membrane by using semi-dry transfer. Non-specific binding to nitrocellulose is blocked with 5% skim milk in TBS with 0.5% Tween at room temperature for 1 hour, then probed with anti-HER2/ErB2 mAb (rabbit IgG, #2242, Cell Signaling) and anti-Tubulin (T9026, Sigma) as housekeeping control protein. HRP-conjugated goat anti-rabbit IgG (H+L) and HRP-conjugated horse anti-mouse IgG (H+L) are used as secondary Ab (#7074, #7076, Cell Signaling) and LumiGLO reagent, 20× Peroxide (#7003, Cell Signaling) is used for visualization. The Hsp90 client protein HER2 is degraded when cells are treated with Hsp90-targeting moieties or SDC-TRAPs of the invention.

wild-type JAK2 [9] = target: T1, wild-type JAK2 (Homo sapiens, UniProt O60674); conditions: read-out: IC50 interleukin-3-stimulated wild-type JAK2-mediated signaling; cited from earlier work
wild-type JAK2 [10] = target: T1, wild-type JAK2; conditions: read-out: IC50 interleukin-3-stimulated wild-type JAK2-mediated cell proliferation; cited from earlier work
[11] = system: Ba/F3-JAK2V617F-GFP tumor burden; conditions: cited from earlier work
[12] = system: Ba/F3-JAK2V617F-GFP ascitic tumor cells; conditions: cited from earlier work
JAK2V617F = target: T2, JAK2V617F (Homo sapiens, UniProt O60674, V617F); conditions: Ba/F3 cells; read-out: IC50 JAK2V617F-driven signaling; cited from earlier work
T2 construct: host or cells: Ba/F3
T2 sequence (O60674 whole entry V617F): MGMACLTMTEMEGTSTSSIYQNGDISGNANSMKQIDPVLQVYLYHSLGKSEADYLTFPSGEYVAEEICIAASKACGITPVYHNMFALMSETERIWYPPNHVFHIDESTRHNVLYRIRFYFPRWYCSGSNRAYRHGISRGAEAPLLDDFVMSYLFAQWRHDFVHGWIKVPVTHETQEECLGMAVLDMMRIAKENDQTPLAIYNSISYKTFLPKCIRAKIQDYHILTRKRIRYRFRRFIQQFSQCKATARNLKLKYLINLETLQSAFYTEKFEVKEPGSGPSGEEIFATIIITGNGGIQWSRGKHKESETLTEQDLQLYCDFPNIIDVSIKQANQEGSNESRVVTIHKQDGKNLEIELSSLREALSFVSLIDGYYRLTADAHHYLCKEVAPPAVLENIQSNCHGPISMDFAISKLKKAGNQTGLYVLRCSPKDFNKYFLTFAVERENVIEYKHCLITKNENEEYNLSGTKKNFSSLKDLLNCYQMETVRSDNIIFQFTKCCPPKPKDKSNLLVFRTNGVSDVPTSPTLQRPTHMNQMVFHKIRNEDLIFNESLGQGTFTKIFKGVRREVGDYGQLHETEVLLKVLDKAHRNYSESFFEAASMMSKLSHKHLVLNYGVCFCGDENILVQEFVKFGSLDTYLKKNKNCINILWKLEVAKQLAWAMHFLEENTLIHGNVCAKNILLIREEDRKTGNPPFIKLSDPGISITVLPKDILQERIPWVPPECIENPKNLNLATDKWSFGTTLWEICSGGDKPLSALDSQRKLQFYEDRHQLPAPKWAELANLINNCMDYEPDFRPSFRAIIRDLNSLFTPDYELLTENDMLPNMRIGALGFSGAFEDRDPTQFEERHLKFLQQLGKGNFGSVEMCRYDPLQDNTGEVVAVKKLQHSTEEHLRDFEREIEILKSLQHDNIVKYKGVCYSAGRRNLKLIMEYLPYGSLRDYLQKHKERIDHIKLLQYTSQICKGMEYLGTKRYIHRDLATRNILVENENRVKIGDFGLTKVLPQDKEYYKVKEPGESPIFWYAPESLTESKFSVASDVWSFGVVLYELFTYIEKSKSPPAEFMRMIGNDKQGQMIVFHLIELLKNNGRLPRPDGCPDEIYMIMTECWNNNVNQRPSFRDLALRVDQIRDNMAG

T1 sequence (O60674 whole entry, species assumed): as the sequence (O60674 whole entry V617F) above, with F617V counted along it
p38α MAPK, sequence (Q16539 whole entry): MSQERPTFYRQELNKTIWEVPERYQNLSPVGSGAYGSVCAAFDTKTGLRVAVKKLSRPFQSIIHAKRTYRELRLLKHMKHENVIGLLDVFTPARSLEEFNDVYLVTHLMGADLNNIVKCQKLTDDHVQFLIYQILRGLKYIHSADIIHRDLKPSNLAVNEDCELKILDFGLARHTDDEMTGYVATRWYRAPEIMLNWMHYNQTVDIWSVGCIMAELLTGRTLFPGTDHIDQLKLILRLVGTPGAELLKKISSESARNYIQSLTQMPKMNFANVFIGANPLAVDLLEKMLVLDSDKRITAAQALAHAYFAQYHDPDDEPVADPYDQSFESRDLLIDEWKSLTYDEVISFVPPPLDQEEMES
β isoform of p38 MAPK, sequence (Q15759 whole entry, canonical isoform): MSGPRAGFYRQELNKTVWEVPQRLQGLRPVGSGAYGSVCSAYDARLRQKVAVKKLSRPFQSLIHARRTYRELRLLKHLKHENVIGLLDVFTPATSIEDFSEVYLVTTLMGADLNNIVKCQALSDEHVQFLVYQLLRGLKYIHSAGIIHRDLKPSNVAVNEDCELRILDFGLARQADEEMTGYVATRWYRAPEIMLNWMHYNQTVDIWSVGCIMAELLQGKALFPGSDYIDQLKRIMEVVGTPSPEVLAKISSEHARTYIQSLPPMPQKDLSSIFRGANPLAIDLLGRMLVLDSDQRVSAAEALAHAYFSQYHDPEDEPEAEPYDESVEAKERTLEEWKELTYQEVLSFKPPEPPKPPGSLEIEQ

Structure (SMILES): C[C@@H](Oc1ccc2[nH]nc(/C=C/c3cnn(CCO)c3)c2c1)c1c(Cl)cncc1Cl [LY2874455, (R)-(E)-2-(4-(2-(5-(1-(3,5-Dichloropyridin-4-yl)ethoxy)-1H-indazol-3-yl)vinyl)-1H-pyrazol-1-yl) ethanol]
in vitro and in vivo selectivity on inhibition of FGF-over VEGF-mediated target signaling [1]: 6- to 9 fold

IC50 (HER2 [2]): ~30 nM
concentration of ganetespib in tumor ([3]; 5 min after 50 mg/kg IV): 2350 nM
mean concentration in plasma relative to RBC ([3]; 5 min time point): about 10 times
Concentration of ganetespib in plasma ([3]; 24 hr after 50 mg/kg IV): >LLOQ
Structure (SMILES): CC(C)c1cc(-c2nnc(O)n2-c2ccc3c(ccn3C)c2)c(O)cc1O [ganetespib]

Structure (SMILES): CCN1CCN(Cc2ccc(Nc3ncc(F)c(-c4cc(F)c5nc(C)n(C(C)C)c5c4)n3)nc2)CC1.CS(=O)(=O)O [LY2835219, 2-Pyrimidinamine, N-[5-[(4-ethyl-1-piperazinyl)methyl]-2-pyridinyl]-5-fluoro-4-[4-fluoro-2-methyl-1-(1-methylethyl)-1H-benzimidazol-6-yl]-, methanesulfonate (1:1)]
percent of dose in brain [4]: 0.5-3.9%

Structure (SMILES): CC(C)(C)Cn1c(N)nc2ccc(-c3[nH]c(C(C)(C)C)nc3-c3ccc(F)cc3)nc21 [LY2228820, 5-[2-tert-Butyl-4-(4-fluorophenyl)-1H-imidazol-5-yl]-3-(2,2-dimethylpropyl)-3H-imidazo[4,5-b]pyridin-2-amine dimethanesulfonate]
IC50 (p38α MAPK; in vitro, read-out: IC50 α isoform of p38 MAPK): 5.3 nM
selectivity for p38α MAPK versus 179 other kinases tested (p38α MAPK; including p38δ and γ isoforms): > 1000 fold
IC50 [5]: 35.3 nM
IC50 (TNFα secretion): 6.3 nM
IC50 (β isoform of p38 MAPK): 3.2 nM
TMED70 phospho-MK2 inhibition in tumors (phospho-MK2; mice transplanted with B16-F10 melanomas): 19.4 mg/kg
duration of significant target inhibition (phospho-MK2; single 10 mg/kg oral dose): 4 to 8 h
inhibition of phospho-MK2 (phospho-MK2; single 10 mg/kg oral dose): > 40%
IC50 [6]: 8.1 nM

Structure (SMILES): COc1cccc(OCCCN)c1-c1cc(Nc2cnc(C#N)cn2)n[nH]1 [LY2606368, 5-((5-(2-(3-aminopropoxy)-6-methoxyphenyl)-1H-pyrazol-3-yl)amino)pyrazine-2-carbonitrile]
inhibition of metastasis to lymph node, spleen, and intestine [7]: 100%
inhibition of primary tumor growth [7]: over 92%
IC50 (SW1990): 1.5 nM

Structure (SMILES): C=CCNC1=C2C[C@@H](C)C[C@H](OC)[C@H](O)[C@@H](C)/C=C(\C)[C@H](OC(N)=O)[C@@H](OC)/C=C\C=C(/C)C(=O)NC(=CC1=O)C2=O [17-AAG]
degradation of HER2 (HER2 [8]): partial degradation of HER2

Structure (SMILES): Cc1cc(Nc2cc(CN3CCOCC3)c3nc(C)c(Cc4ccc(Cl)cc4F)n3n2)n[nH]1 [LY2784544, 3-(4-Chloro-2-fluorobenzyl)-2-methyl-N-(5-methyl-1H-pyrazol-3-yl)-8-(morpholin-4-ylmethyl)imidazo[1,2-b]pyridazin-6-amine]
IC50 (wild-type JAK2 [9]): 1180 nM
IC50 (wild-type JAK2 [10]): 1310 nM
effect on erythroid progenitors, reticulocytes or platelets ([11]; in vivo): no effect
TED50 reduction of Ba/F3-JAK2V617F-GFP tumor burden ([11]; twice daily): 13.7 mg/kg
TED50 inhibition of STATS phosphorylation [12]: 12.7 mg/kg
IC50 (JAK2V617F): 20 nM
